# Laboratory results reported in patent US20050063989A1, “Ion channel hybrid proteins as electrical sensors and use thereof” (COMMISSARIAT A L'ENERGIE ATOMIQUE, priority 2003, published 2005).
# Columns and labels:
# [1] = molecular target: T1, SUR1-Kir6.2 channels (UniProt Q09427+Q61743); assay: Inside-out patch-clamp of SUR1-Kir6.2 fusion channels expressed in Xenopus oocytes; format: cell-based, hamster SUR1, mouse Kir6.2
# T1 construct: expressed in transfected cells; host or cells: Xenopus laevis oocytes injected with in vitro transcribed mRNA; excised inside-out patches
# T1 sequence (Q09427+Q61743 fused): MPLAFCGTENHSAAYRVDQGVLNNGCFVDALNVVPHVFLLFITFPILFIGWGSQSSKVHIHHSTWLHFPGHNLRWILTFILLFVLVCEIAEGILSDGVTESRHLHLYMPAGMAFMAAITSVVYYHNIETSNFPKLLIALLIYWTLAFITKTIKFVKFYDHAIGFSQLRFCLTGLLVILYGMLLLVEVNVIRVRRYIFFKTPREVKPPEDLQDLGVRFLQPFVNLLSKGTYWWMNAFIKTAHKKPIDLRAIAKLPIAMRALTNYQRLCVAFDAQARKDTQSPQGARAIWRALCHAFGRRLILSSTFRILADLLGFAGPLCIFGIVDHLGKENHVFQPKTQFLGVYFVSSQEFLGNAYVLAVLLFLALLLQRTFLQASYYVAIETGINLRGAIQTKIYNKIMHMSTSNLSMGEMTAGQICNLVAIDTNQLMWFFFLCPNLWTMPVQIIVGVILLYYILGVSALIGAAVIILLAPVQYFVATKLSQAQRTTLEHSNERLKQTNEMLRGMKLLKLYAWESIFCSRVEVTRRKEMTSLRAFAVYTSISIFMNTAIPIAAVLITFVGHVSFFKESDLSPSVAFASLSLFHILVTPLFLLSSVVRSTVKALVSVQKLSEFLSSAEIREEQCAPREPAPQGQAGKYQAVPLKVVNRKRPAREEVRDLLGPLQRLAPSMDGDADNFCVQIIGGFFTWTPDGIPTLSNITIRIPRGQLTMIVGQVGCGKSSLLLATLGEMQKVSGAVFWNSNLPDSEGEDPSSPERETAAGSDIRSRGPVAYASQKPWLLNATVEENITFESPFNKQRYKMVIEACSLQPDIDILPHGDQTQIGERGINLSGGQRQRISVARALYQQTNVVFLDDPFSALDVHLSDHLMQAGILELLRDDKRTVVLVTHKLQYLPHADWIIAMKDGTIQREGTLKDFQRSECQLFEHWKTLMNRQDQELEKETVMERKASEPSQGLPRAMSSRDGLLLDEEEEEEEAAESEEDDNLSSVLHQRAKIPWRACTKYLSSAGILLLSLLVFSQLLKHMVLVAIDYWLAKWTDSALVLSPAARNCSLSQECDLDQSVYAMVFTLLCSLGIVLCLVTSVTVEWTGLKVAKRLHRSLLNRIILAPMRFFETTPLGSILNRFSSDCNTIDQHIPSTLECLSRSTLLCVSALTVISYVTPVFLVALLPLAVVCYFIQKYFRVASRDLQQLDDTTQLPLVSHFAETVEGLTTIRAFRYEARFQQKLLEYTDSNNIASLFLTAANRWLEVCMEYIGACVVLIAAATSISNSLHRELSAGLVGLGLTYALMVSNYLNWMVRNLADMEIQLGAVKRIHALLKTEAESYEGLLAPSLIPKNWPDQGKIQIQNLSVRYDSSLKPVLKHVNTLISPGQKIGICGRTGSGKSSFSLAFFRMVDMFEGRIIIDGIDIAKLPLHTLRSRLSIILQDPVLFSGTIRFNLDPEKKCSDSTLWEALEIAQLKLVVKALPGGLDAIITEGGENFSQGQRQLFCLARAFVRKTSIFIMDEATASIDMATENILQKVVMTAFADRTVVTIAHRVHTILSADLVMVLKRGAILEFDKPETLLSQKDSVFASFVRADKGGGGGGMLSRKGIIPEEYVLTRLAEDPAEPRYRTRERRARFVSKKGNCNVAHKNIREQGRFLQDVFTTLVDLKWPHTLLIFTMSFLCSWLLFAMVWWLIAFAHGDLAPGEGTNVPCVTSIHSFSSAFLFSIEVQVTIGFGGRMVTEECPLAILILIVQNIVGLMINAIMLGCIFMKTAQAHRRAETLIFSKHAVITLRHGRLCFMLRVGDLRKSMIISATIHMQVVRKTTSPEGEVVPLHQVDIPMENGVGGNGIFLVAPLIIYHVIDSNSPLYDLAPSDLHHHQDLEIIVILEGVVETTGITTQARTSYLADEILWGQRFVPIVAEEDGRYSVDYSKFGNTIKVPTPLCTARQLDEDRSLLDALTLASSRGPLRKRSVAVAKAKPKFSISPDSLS
# Protocol: (§1) mRNAs coding Kir6.2 (˜2 ng) and wild-type SURs (˜6 ng) or mRNAs coding the fusion constructs (˜8 ng) were co-injected into defoliculated Xenopus laevis oocytes. Injected oocytes were stored at 19° C. in Barth's solution (in mM: 1 KCl, 0.82 MgSO4, 88 NaCl, 2.4 NaHCO3, 0.41 CaCl2, 0.3 Ca(NO3)2, 16 HEPES, pH 7.4) with 100 U/ml penicillin, 100 μg/ml streptomycin, and 100 μg/ml gentamycin.
# (§2) Two to 15 days after injection, oocytes were devitellinized and recombinant KATP channels were characterized by the patch-clamp technique in the excised inside-out configuration (Hamill et al., Arch. Eur. J. Physiol., 1981, 391, 85-100). Patch pipettes (2-10 MΩ) contained 154 mM K^+, 146 mM Cl^−, 5 MM Mg^2+, and 10 mM PIPES (pH 7.1). The cytoplasmic face of the patch was bathed in solutions which all contained 174 mM K^+, 40 mM Cl^−, 1 mM EGTA, 1 Mg^2+, 10 mM PIPES (pH 7.1), and methanesulfonate (approximately, 160 mM, depending on the ATP and ADP amounts added—as the remaining anions. ATP and ADP (potassium salt; Sigma), SR47063 (20 mM stock in DMSO; Sanofi Recherche), diazoxide (100 mM stock in DMSO; Sigma) and P1075 (20 mM stock in DMSO; Leo Pharmaceutical Products) were added as specified. The membrane potential was maintained at −50 mV. Experiments were conducted at room temperature (22-24° C.).
# (§3) Applications of the various solutions to the intracellular face of the patch was performed using a RSC-100 rapid-solution-changer (Bio-Logic). Analog signals were filtered at 300 Hz and sampled at 1 kHz. Slow fluctuations of the no-channel-open baseline of the signal were removed by interactive fitting of the baseline with a spline curve and subtraction of this fit from the signal. Acquisition, analysis, and presentation were performed with in-house software.
# [2] = tested on: Xenopus oocytes; assay: Density of active fusion channels: ATP-inhibitable current after patch excision; format: cell-based, Xenopus laevis
# Protocol: as §1, §2, §3
# [3] = molecular target: T2, SUR2A-Kir6.2 channels (Rattus norvegicus, UniProt Q63563); assay: Inside-out patch-clamp of SUR2A-Kir6.2 fusion channels expressed in Xenopus oocytes; format: cell-based, mouse Kir6.2; details: for Effect of K-channel opener on SUR2A-Kir6.2 channels: opener 10 μM, in the presence of partially-inhibiting ATP (100 μM), -50 mV
# T2 construct: expressed in transfected cells; host or cells: Xenopus laevis oocytes injected with in vitro transcribed mRNA; excised inside-out patches
# T2 sequence (Q63563 with tags, fused parts or gaps): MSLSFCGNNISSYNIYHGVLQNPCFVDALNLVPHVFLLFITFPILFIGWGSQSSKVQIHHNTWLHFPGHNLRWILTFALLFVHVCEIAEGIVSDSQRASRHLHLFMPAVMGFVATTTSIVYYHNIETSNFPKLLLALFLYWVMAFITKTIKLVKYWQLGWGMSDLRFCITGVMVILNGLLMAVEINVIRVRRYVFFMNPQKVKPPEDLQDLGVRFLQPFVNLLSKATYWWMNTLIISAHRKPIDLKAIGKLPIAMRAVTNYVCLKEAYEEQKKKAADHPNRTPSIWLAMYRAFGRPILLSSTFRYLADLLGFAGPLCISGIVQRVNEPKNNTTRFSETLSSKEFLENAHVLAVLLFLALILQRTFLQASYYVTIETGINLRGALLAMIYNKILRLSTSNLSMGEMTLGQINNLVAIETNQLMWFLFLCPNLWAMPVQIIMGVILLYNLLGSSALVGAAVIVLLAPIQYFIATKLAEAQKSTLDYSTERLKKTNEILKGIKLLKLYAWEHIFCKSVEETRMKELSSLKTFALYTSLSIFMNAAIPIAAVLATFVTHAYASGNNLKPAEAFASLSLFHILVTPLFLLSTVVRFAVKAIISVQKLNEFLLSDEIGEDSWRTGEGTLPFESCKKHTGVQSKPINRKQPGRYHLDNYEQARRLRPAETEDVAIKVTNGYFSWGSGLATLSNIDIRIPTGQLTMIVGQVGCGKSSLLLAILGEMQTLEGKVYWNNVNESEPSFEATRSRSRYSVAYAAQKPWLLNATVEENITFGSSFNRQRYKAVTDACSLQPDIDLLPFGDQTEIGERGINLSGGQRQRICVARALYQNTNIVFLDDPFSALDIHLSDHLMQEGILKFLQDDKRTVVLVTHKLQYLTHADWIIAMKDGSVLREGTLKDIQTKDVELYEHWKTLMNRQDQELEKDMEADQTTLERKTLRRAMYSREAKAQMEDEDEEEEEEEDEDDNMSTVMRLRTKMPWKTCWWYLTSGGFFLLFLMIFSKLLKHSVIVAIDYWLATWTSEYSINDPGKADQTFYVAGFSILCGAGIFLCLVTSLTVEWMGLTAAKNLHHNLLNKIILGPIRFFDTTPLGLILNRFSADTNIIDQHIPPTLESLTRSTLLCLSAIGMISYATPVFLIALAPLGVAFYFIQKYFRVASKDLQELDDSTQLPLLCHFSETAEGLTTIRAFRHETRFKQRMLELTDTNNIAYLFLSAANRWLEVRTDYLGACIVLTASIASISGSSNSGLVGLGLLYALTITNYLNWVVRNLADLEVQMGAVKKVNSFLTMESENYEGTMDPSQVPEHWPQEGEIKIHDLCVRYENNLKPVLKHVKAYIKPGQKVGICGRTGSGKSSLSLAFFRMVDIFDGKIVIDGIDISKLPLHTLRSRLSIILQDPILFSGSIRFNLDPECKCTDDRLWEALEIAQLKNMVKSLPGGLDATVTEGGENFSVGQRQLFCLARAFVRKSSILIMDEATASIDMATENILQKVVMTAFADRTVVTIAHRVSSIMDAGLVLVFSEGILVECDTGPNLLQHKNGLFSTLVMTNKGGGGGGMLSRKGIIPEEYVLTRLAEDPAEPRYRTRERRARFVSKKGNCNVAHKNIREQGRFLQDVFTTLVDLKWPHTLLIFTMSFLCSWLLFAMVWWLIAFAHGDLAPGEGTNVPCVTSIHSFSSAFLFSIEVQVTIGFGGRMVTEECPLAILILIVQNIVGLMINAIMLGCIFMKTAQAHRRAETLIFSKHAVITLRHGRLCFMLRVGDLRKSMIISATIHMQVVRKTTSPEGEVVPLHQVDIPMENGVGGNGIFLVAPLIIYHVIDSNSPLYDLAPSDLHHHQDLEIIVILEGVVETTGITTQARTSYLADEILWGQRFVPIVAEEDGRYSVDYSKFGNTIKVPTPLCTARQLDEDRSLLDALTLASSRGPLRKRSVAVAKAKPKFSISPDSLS
# Protocol: as §1, §2, §3
# [4] = molecular target: T3, MRP1-Kir6.2 channels (Homo sapiens, UniProt P33527, M117T); assay: Inside-out patch-clamp of MRP1-Kir6.2 fusion channels expressed in Xenopus oocytes; format: cell-based, mouse Kir6.2
# T3 construct: expressed in transfected cells; host or cells: Xenopus laevis oocytes injected with in vitro transcribed mRNA; excised inside-out patches
# Protocol: as §1
# as §2, with “C.). […]” for “C.).”
# [5] = molecular target: T4, YCF1-Kir6.2ΔC36 (UniProt P39109+Q61743); assay: Inside-out patch-clamp of YCF1-Kir6.2ΔC36 channels expressed in Xenopus oocytes; format: cell-based, yeast YCF1, mouse Kir6.2
# T4 construct: expressed in transfected cells; host or cells: Xenopus laevis oocytes injected with in vitro transcribed mRNA; excised inside-out patches
# Description: (§4) Removal of the RKR endoplasmic reticulum retention signal of Kir6.2 was accomplished either by deletion of the last 26 or 36 residues of the C-terminal extremity (Tucker et al., Nature, 1997, 387: 179-183) through introduction of a premature stop codon at the correct position, or by site-directed mutagenesis of RKR to RAA (i.e., K370A and R371A). The resulting constructs, named Kir6.2Δ26, Kir6.2ΔC36, and Kir6.2KR370AA, were created by mutagenesis amplification (QuickChange site-directed mutagenesis kit, Stratagene). The sequences corresponding to the different constructs are as presented in Table 1: SUR2A-Kir6.2ΔC36 (SEQ ID NO: 3), MRP1-Kir6.2ΔC36 (SEQ ID NO: 4), YCF1-Kir6.2ΔC36 (SEQ ID NO: 5) and MRP1-Kir6.2[KR370AA] (SEQ ID NO: 6).
# as §1
# (§5) Two to 15 days after injection, oocytes were devitellinized and recombinant KATP channels were characterized by the patch-clamp technique in the excised inside-out configuration (Hamill et al., Arch. Eur. J. Physiol., 1981, 391, 85-100). […]
# [6] = tested on: MRP1-Kir6.2KR370AA; assay: Inside-out patch-clamp of MRP1-Kir6.2KR370AA channels expressed in Xenopus oocytes; format: cell-based, human MRP1, mouse Kir6.2; details: compared with MRP1-Kir6.2
# Description: as §4, §1, §5
# [7] = molecular target: T5, Kir6.2ΔC36 channels (Mus musculus, UniProt Q61743); assay: Inside-out patch-clamp of Kir6.2ΔC36 channels expressed alone in Xenopus oocytes; format: cell-based
# T5 construct: expressed in transfected cells; host or cells: Xenopus laevis oocytes; excised inside-out patches
# T5 sequence (Q61743 1-354 limits assumed): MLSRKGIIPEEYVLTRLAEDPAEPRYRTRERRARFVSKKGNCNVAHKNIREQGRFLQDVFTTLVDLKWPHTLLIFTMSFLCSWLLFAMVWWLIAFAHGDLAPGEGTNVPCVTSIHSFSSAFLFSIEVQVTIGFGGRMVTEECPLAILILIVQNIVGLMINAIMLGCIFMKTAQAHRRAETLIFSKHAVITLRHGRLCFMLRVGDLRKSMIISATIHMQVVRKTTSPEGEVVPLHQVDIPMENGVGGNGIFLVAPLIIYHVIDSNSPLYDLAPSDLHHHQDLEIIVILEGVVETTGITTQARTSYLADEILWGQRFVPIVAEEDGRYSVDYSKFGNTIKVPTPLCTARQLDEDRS
# Description: as §4, §1, §5
# [8] = total current blocked by 2 mM ATP after patch excision
# [9] = ADP at submillimolar concentrations
molecule,measurement,setting,value
CC1=NS(=O)(=O)c2cc(Cl)ccc2N1 [diazoxide],Effect of opener on SUR1-Kir6.2 channels,[1]; diazoxide 300 μM,activated
MRP1-Kir6.2: fusion of human MRP1 C-terminus to mouse Kir6.2 N-terminus with hexaglycine spacer,"Patch current, fold lower than SUR1-Kir6.2",[2]; [8],7 fold
same,"Patch current, fold lower than SUR2A-Kir6.2",[2]; [8],5 fold
CC1(C)C=C(n2ccccc2=NC#N)c2cc([N+](=O)[O-])ccc2O1 [SR47063],Effect of K-channel opener on SUR2A-Kir6.2 channels,[3],activated
Nc1ncnc2c1ncn2[C@@H]1O[C@H](COP(=O)(O)OP(=O)(O)OP(=O)(O)O)[C@@H](O)[C@H]1O [ATP],Sensitivity of SUR1-Kir6.2 channels to ATP,[1],high sensitivity
same,Sensitivity of MRP1-Kir6.2 channels to inhibition by ATP,[4],less sensitive to inhibition by ATP than either SUR-Kir6.2 fusions or wild-type channels
same,Sensitivity of SUR2A-Kir6.2 channels to ATP,[3],high sensitivity
same,Effect of ATP on YCF1-Kir6.2ΔC36 currents,[5],ATP-sensitive currents
same,Sensitivity of MRP1-Kir6.2KR370AA to ATP,[6],could not be distinguished from the non-mutated MRP1-Kir6.2 protein
"YCF1-Kir6.2: fusion of yeast YCF1 with mouse Kir6.2, hexaglycine spacer",ATP-inhibitable current of the construct after patch excision,[2],no detectable exogenous current
CCC(C)(C)N=C(NC#N)Nc1cccnc1 [P1075],Effect of K-channel opener on SUR2A-Kir6.2 channels,[3],activated
YCF1-Kir6.2ΔC36: YCF1-Kir6.2 fusion with last 36 residues truncated to remove the RKR signal,ATP-inhibitable current of the construct after patch excision,[2],noticeably small compared to the other constructs
Nc1ncnc2c1ncn2[C@@H]1O[C@H](COP(=O)(O)OP(=O)(O)O)[C@@H](O)[C@H]1O [ADP],Effect of ADP on SUR1-Kir6.2 fusion channels,[1]; [9],activation
same,Effect of ADP on MRP1-Kir6.2 currents,"[4]; ADP 100 μM and 300 μM, in the presence of 100 μM ATP",reduced in a dose-dependent manner
same,Effect of ADP on Kir6.2ΔC36 (SUR-less) channels,[7],inhibited
same,Effect of ADP on SUR2A-Kir6.2 fusion channels,[3]; [9],activation
same,Sensitivity of MRP1-Kir6.2KR370AA to ADP,[6],could not be distinguished from the non-mutated MRP1-Kir6.2 protein
